# What was measured:
# [1] = Solubility after 24 hrs in Fasted State Simulated Intestinal Fluid (FaSSIF); assay type: physicochemical; conditions: 24 hrs at 37° C., nominal concentration 1 mg/mL (as free base); for solubility at 24 h: Fasted State Simulated Intestinal Fluid (FaSSIF), thermodynamic from solid
# Experimental: Selected compounds were further screened for solubility in Fasted State Simulated Intestinal Fluid (FaSSIF).
# Approximately 1 mg of test compound is accurately weighed into a 2 mL vial. Volumes of the FaSSIF solution (pre-heated to 37° C.) were added to a vial to give a nominal concentration of 1 mg/mL (as free base). The FaSSIF solution was prepared on the day of use. The samples were vortexed before being placed in a Titramax 1000 shaker for 24 hrs at 37° C. and approximately 500 rpm. The samples were transferred to eppendorf tubes and centrifuged at 15,000 g (r.c.f.) for 10 min at 37° C. and analysed for concentration of test compound by LCMS.
# [2] = molecular target: Human plasma kallikrein (Homo sapiens (Human), UniProt P03952); experiment: Determination of the IC50 for plasma kallikrein (fluorogenic substrate H-DPro-Phe-Arg-AFC); assay type: biochemical; conditions: class symbols A-D, read-out: IC50 (human PKal)
# Procedure, shortened: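 IC50 values come from initial rates, monitored as the change in absorbance at 410 nm, of residual enzyme activity. Test compound was present at various concentrations with the fluorogenic substrate H-DPro-Phe-Arg-AFC, and the reaction was run at 25° C.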
# [3] = molecular target: Human KLK1 (Homo sapiens (Human), UniProt P06870); experiment: Determination of the IC50 for KLK1 (fluorogenic substrate H-DVal-Leu-Arg-AFC); assay type: biochemical
# Procedure, shortened: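 Inhibition read as initial rate via optical absorbance change at 410 nm, giving IC50. Reactions combined human KLK1, the substrate H-DVal-Leu-Arg-AFC and varied compound concentrations at 25° C.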
# [4] = molecular target: Human FXIa (Homo sapiens (Human), UniProt P03951); experiment: Determination of the % inhibition for FXIa (fluorogenic substrate Z-Gly-Pro-Arg-AFC; 40 μM or IC50); assay type: biochemical
# Procedure, shortened: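 Inhibition measured from initial reaction rate, followed as absorbance change at 410 nm, with substrate Z-Gly-Pro-Arg-AFC at 25 °C. Compound tested at a single 40 μM dose for percent inhibition, or across several concentrations to derive IC50 against human FXIa.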
# Sequence of Human plasma kallikrein (P03952 391-638): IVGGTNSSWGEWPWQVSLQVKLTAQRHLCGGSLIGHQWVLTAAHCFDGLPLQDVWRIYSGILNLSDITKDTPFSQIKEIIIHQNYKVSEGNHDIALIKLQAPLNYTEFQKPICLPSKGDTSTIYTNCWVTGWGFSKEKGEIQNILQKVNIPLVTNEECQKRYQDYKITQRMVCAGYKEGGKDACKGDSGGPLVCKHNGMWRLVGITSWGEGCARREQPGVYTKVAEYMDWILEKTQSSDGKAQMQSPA
# Sequence of Human plasma kallikrein (P03952 20-390 partner): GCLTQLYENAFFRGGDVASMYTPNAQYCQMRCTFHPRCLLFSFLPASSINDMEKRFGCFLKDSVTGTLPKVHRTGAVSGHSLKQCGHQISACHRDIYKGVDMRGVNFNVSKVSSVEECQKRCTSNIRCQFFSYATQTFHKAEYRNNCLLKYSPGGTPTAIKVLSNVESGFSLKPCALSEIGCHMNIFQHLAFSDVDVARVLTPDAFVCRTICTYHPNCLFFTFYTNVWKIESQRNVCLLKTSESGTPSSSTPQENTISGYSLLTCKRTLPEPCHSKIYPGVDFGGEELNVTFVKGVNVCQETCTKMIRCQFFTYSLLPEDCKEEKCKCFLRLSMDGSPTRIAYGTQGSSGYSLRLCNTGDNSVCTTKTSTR
# Sequence of Human KLK1 (P06870 25-262): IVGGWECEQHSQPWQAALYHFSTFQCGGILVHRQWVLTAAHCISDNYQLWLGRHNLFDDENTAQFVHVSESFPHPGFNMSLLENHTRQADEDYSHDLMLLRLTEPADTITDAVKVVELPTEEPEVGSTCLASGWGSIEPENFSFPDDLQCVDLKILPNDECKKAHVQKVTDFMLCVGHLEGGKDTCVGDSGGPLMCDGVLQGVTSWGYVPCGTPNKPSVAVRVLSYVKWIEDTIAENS
# Sequence of Human FXIa (P03951 388-625): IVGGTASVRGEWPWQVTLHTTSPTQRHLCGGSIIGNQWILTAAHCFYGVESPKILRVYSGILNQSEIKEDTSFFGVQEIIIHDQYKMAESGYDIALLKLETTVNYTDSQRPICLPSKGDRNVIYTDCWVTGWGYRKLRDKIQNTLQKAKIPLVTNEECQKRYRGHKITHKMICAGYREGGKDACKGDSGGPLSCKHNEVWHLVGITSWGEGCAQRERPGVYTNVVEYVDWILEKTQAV
# Sequence of Human FXIa (P03951 19-387 partner): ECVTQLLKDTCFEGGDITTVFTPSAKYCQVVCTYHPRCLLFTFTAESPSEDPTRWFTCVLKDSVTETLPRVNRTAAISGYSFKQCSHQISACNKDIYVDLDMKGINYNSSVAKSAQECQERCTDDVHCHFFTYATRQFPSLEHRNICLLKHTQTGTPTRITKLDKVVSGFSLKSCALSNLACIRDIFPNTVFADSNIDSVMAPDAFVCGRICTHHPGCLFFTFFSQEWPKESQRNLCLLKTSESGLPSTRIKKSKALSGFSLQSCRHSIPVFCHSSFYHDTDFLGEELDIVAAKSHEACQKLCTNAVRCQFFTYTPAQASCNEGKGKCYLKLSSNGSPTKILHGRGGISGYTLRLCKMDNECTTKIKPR
FASSIF Solubility 24 hrs [1],IC50 [2],IC50 [3],IC50 [4],solubility at 24 h [1],Compound
960 µg/mL,–,–,–,–,"[2H]C([2H])([2H])N1CCc2ccc(Cn3cc(C(=O)NCc4c(-n5cc(C)nn5)ccc(OC)c4F)c(COC)n3)cc2C1 [Example 119, N-{[2-fluoro-3-methoxy-6-(4-methyl-1,2,3-triazol-1-yl)phenyl]methyl}-3-(methoxymethyl)-1-{[2-(^2H3)methyl-3,4-dihydro-1H-isoquinolin-7-yl]methyl}pyrazole-4-carboxamide]"
–,0.01 to 0.03 µM,> 40 µM,16.3 µM,–,"COCc1nn(Cc2ccc3c(c2)CCN(C)C3=O)cc1C(=O)NCc1c(-n2cc(C)nn2)ccc(OC)c1F [Example 135, N-{[2-fluoro-3-methoxy-6-(4-methyl-1,2,3-triazol-1-yl)phenyl]methyl}-3-(methoxymethyl)-1-[(2-methyl-1-oxo-3,4-dihydroisoquinolin-6-yl)methyl]pyrazole-4-carboxamide]"
–,0.01 to 0.03 µM,> 40 µM,> 40 µM,–,"COc1ccc(-n2cc(C)nn2)c(CNC(=O)c2cn(Cc3ccc4c(c3)CN(C(C)C)C4)c(C3CC3)n2)c1F [Example 150, 2-cyclopropyl-N-{[2-fluoro-3-methoxy-6-(4-methyl-1,2,3-triazol-1-yl)phenyl]methyl}-1-[(2-isopropyl-1,3-dihydroisoindol-5-yl)methyl]imidazole-4-carboxamide]"
–,0.1 to 1 µM,> 40 µM,> 40 µM,–,"COCc1nn(Cc2ccc3c(c2)CN(C)CC3)cc1C(=O)NCc1c(-n2cnc(C(F)F)n2)ccc(Cl)c1F [Example 155, N-({3-chloro-6-[3-(difluoromethyl)-1,2,4-triazol-1-yl]-2-fluorophenyl}methyl)-3-(methoxymethyl)-1-[(2-methyl-3,4-dihydro-1H-isoquinolin-7-yl)methyl]pyrazole-4-carboxamide]"
–,0.1 to 1 µM,> 40 µM,> 40 µM,–,"COCc1nn(Cc2ccc3c(c2)CN(C)CC3)cc1C(=O)NCc1c(-n2cnc(C(F)F)n2)ccc(C(C)(F)F)c1F [Example 157, N-{[3-(1,1-difluoroethyl)-6-[3-(difluoromethyl)-1,2,4-triazol-1-yl]-2-fluorophenyl]methyl}-3-(methoxymethyl)-1-[(2-methyl-3,4-dihydro-1H-isoquinolin-7-yl)methyl]pyrazole-4-carboxamide]"
–,< 0.01 µM,> 40 µM,> 40 µM,–,"COCc1nn(Cc2ccc3c(c2)CCN(C)CC3)cc1C(=O)NCc1c(-n2cnc(C(F)(F)F)n2)ccc(OC)c1F [Example 158, N-({2-fluoro-3-methoxy-6-[3-(trifluoromethyl)-1,2,4-triazol-1-yl]phenyl}methyl)-3-(methoxymethyl)-1-[(3-methyl-1,2,4,5-tetrahydro-3-benzazepin-7-yl)methyl]pyrazole-4-carboxamide]"
–,0.1 to 1 µM,> 40 µM,> 40 µM,–,"COc1ccc(-n2cc(C)nn2)c(CNC(=O)c2ccn(Cc3ccc4c(c3)CN(C)CC4)c(=O)c2)c1F [Example 159, N-{[2-fluoro-3-methoxy-6-(4-methyl-1,2,3-triazol-1-yl)phenyl]methyl}-1-[(2-methyl-3,4-dihydro-1H-isoquinolin-7-yl)methyl]-2-oxopyridine-4-carboxamide]"
–,–,–,–,20 µg/mL,"COCc1nn(Cc2cnc(N3CCCC3)nc2)cc1C(=O)NCc1c(-n2ccnn2)ccc(OC)c1F [RC5, N-{[2-fluoro-3-methoxy-6-(1,2,3-triazol-1-yl)phenyl]methyl}-3-(methoxymethyl)-1-{[2-(pyrrolidin-1-yl)pyrimidin-5-yl]methyl}pyrazole-4-carboxamide, reference compound]"
–,–,–,–,100 µg/mL,"COCc1nn(Cc2cnc(N3CCCC3)nc2)cc1C(=O)NCc1c(-n2cc(C)nn2)ccc(OC)c1F [RC6, N-{[2-fluoro-3-methoxy-6-(4-methyl-1,2,3-triazol-1-yl)phenyl]methyl}-3-(methoxymethyl)-1-{[2-(pyrrolidin-1-yl)pyrimidin-5-yl]methyl}pyrazole-4-carboxamide, reference compound]"

# — US11613527B2, “Enzyme inhibitors” (KalVista Pharmaceuticals Limited, priority 2019, dated 2023)
